Measurements as given in patent US9393249B2, “Antimicrobial composition” (INSTITUTE OF TECHNOLOGY SLIGO, priority 2008, dated 2016).
Values belong to the compound of their own block, whether it stands above or below them.

Tests used:
S. aureus NCIMB 9587 = assay: Checkerboard synergy test; type: cell-based, Staphylococcus aureus; settings: MIC as two-fold dilution fraction of each agent's final dilution (A^3IS 3%; antibiotics 1:100 to 1:3,200,000); overnight 35° C.
Description: Stock solutions were prepared according to published standards (CLSI (Clinical and Laboratory Standards Institute): Performance Standards for Antimicrobial Susceptibility testing. Fifteenth Informational Supplement. CLSI document M100-S15. Pennsylvania USA 2005, 19087-1898)
Synergy tests were performed in 96-well microtiter plates containing the A^3IS (from Example 3)/antibiotic combinations in two fold dilutions dispensed in a checkerboard fashion on the day of the assay. Each well contained 0.1 mL of A^3IS/antimicrobial combinations. A suspension of S. aureus test culture was prepared from an overnight broth culture to yield a final inoculum of approximately 3×10^5 to 5×10^5 CFU/mL. Twenty microliters of this suspension was added to all but the sterility control wells. MICs were read after overnight incubation at 35° C. Growth and sterility controls were included in each plate. Each isolate was tested twice. Growth was determined by visually examining each well for evidence of turbidity.
For the first clear well in each row of the microtiter plate containing both antimicrobial agents, the fractional inhibitory concentration (FIC) was calculated as follows: FIC of drug A (FICA)=MIC of drug A in combination/MIC of drug A alone, and the FIC of drug B (FICB)=MIC of drug B in combination/MIC of drug B alone.

[1] = system: clinical isolates of Mastitis causing Staphylococcus aureus; assay: Inhibition assay (3 day repeats) on mastitis clinical isolates; type: cell-based; settings: FIG. 11b
Description: • Escherichia coli (NCIMB 8545), Staphylococcus aureus (NCIMB 9518) and Pseudomonas aeruginosa (NCIMB 8626) are grown on nutrient agar or in nutrient broth for 24 hrs at 37° C. • Candida albicans (NCIMB 3179) and Saccharomyces cerevisiae are grown on sabaroud dextrose agar or in sabaroud dextrose broth for 24 hrs at 37° C. • Propionibacterium acnes (P. acnes ATCC/NTC 11827) is grown anaerobically on blood agar or in nutrient broth for 72 hrs at 37° C. • 22 isolates of Staphylococcus aureus from clinical mastitis obtained from Sligo regional Veterinary Laboratories are grown on nutrient agar or in nutrient broth for 24 hrs at 37° C. • For testing conducted in the Sligo Regional General Hospital; five Beta haemolytic Streptococci Group A clinical isolates are grown on blood agar or in nutrient broth for 24 hrs at 37° C. • Campylobacter coli (NCTC 11366) is grown on brain heart infusion agar or in brain heart infusion broth for 72 hrs at 37° C. • Campylobacter jejuni (NCTC 11322) and three clinical isolates are grown on brain heart infusion agar or in brain heart infusion broth for 72 hrs at 37° C. • MRSA (ATCC 43300) and seven clinical isolates are grown on nutrient agar or in brain heart infusion broth for 72 hrs at 37° C. • Laboratory mould isolates are grown on sabaroud dextrose agar or in sabaroud dextrose broth for 48 hrs at 25° C. • Botrytis cinerea is grown on sabaroud dextrose agar or in sabaroud dextrose broth for 48 hrs at 25° C.
Agar plates are inoculated by swabbing overnight culture onto the plate surface. Plates are allowed to stand at room temperature for 15 minutes before use. Wells 8.2 mm diameter are bored into the surface of the agar. One hundred and eighty μl of sample is placed into each well. The samples diffuse into the agar around the well and are assayed for an ability to produce a zone of inhibition. Plates are incubated for 24, 48 or 72 hrs and zones of inhibition are measured using an Autodata automatic zone reader. The diameter of zones, including the diameter of the well (8.2 mm), is recorded. […]

Candida albicans = assay: Well/disc diffusion inhibition assay of combinations; type: cell-based; settings: 50 μl A^3IS + 50 μg agent versus 100 μl A^3IS alone; FIG. 19
Description: Various combinations of A^3IS (from Example 3) and antibiotics/antifungal agents were tested against a placebo and A^3IS alone using a well/disc diffusion method. […] Well/Disc Diffusion Methods for Measurement of Microbial Inhibition: Agar plates were inoculated by swabbing overnight culture onto the plate surface. Plates were allowed to stand at room temperature for 15 minutes before use. Wells 8.2 mm diameter were bored into the surface of the agar. 100 μl of samples (a) to (c) was placed into each well. The samples diffuse into the agar around the well and are assayed for an ability to produce a zone of inhibition. Plates are incubated for 24, 48 or 72 hrs and zones of inhibition are measured. The diameter of zones, including the diameter of the well (8.2 mm) was recorded.

L929 cells = assay: ISO 10993-5 agar overlay cytotoxicity (neutral red); settings: 24 hrs
Description: ISO 10993, agar overlay tests for cytotoxicity: in vitro method is also used, employing L929 cells (mouse fibroblasts ECACC 85011425). In brief; a confluent monolayer of cells is incubated, this is then covered with a layer fresh medium (EMEM, 2 mM L-Glutamine, 5% FBS, 2% Penicillin-Streptomycin) containing 1.5 g/l of soft agar and allowed to solidify. One tenth of the surface is covered with test materials (previously described) and incubated for 24 hrs. Post incubation the test material is carefully removed and a vital stain (neutral red) in fresh media added. After incubation this is removed, the cells washed and then the dye extracted from the cells and quantified spectrophotometrically for cell viability.
Percent toxicity was calculated according to the formula: % Toxicity=1−(OD average of test material wells/average OD of corresponding control wells (sodium azide added))×100. Included in the assay are a 50% concentration of A^3IS, a range of concentrations of commercial silver containing gel and commercial zinc containing gel product, compared to sodium azide (positive control). […] For the agar overlay toxicity assay the amount of test materials used was similar to that used for the initial direct contact assays of 100 mg per well however the contact time was extended to 24 hrs.

MICs for A^3IS & antibiotics on S. aureus NCIMB 9587 (S. aureus NCIMB 9587): ¼
Compound: CC1(C)S[C@@H]2[C@H](NC(=O)[C@H](N)c3ccc(O)cc3)C(=O)N2[C@H]1C(=O)O [Amoxicillin]

Compound: O=C(N[C@H](CO)[C@H](O)c1ccc([N+](=O)[O-])cc1)C(Cl)Cl [Chloramphenicol]
sensitivity of clinical isolate number 15 [1]: only mild sensitivity

Compound: Clc1ccccc1C(c1ccccc1)(c1ccccc1)n1ccnc1 [Clotrimazole]
effect of combination with hydrogen peroxide source (zone of inhibition) (Candida albicans): effects going beyond a combination/additive effects with hydrogen peroxide

Compound: Cc1cc(C2CCCCC2)n(O)c(=O)c1.NCCO [Cyclopiroxalomine]
effect of combination with hydrogen peroxide source (zone of inhibition) (Candida albicans): effects going beyond a combination/additive effects with hydrogen peroxide

MICs for A^3IS & antibiotics on S. aureus NCIMB 9587 (S. aureus NCIMB 9587): ½
Compound: CC[C@H]1OC(=O)[C@H](C)[C@@H](O[C@H]2C[C@@](C)(OC)[C@@H](O)[C@H](C)O2)[C@H](C)[C@@H](O[C@@H]2O[C@H](C)C[C@H](N(C)C)[C@H]2O)[C@](C)(O)C[C@@H](C)C(=O)[C@H](C)[C@@H](O)[C@]1(C)O [Erythrocin]

MICs for A^3IS & antibiotics on S. aureus NCIMB 9587 (S. aureus NCIMB 9587): ½
Compound: Cc1onc(-c2c(F)cccc2Cl)c1C(=O)N[C@@H]1C(=O)N2[C@@H]1SC(C)(C)[C@@H]2C(=O)O [Flucloxacillin]

MICs for A^3IS & antibiotics on S. aureus NCIMB 9587 (S. aureus NCIMB 9587): ½
Compound: CC[C@H]1OC(=O)[C@H](C)[C@@H](O[C@H]2C[C@@](C)(OC)[C@@H](O)[C@H](C)O2)[C@H](C)[C@@H](O[C@@H]2O[C@H](C)C[C@H](N(C)C)[C@H]2O)[C@](C)(OC)C[C@@H](C)C(=O)[C@H](C)[C@@H](O)[C@]1(C)O [KIacid]

Compound: CC(=O)N1CCN(c2ccc(OCC3COC(Cn4ccnc4)(c4ccc(Cl)cc4Cl)O3)cc2)CC1 (centres unmarked) [Ketoconazole]
effect of combination with hydrogen peroxide source (zone of inhibition) (Candida albicans): effects going beyond a combination/additive effects with hydrogen peroxide

Compound: [H]/N=C(/N)N[C@H]1[C@H](O)[C@@H](O)[C@H](O[C@@H]2O[C@@H](C)[C@](O)(C=O)[C@H]2O[C@@H]2O[C@@H](CO)[C@H](O)[C@@H](O)[C@@H]2NC)[C@@H](N/C(N)=N\[H])[C@@H]1O [Streptomycin]
sensitivity of clinical isolate number 15 [1]: resistant

Compound: CN(C/C=C/C#CC(C)(C)C)Cc1cccc2ccccc12 [Terbidifine]
effect of combination with hydrogen peroxide source (zone of inhibition) (Candida albicans): effects going beyond a combination/additive effects with hydrogen peroxide

Compound: CN[C@H](CC(C)C)C(=O)N[C@H]1C(=O)N[C@@H](CC(N)=O)C(=O)N[C@H]2C(=O)N[C@H]3C(=O)N[C@H](C(=O)N[C@H](C(=O)O)c4cc(O)cc(O)c4-c4cc3ccc4O)[C@H](O)c3ccc(c(Cl)c3)Oc3cc2cc(c3O[C@@H]2O[C@H](CO)[C@@H](O)[C@H](O)[C@H]2O[C@H]2C[C@](C)(N)[C@H](O)[C@H](C)O2)Oc2ccc(cc2Cl)[C@H]1O [Vancomycin]
sensitivity of clinical isolate number 15 [1]: resistant

MICs for A^3IS & antibiotics on S. aureus NCIMB 9587 (S. aureus NCIMB 9587): ¼
Compound: CC1=C(C(=O)O)N2C(=O)[C@@H](NC(=O)[C@H](N)C3=CCC=CC3)[C@H]2SC1 [Velocef, Cefradine]

MICs for A^3IS & antibiotics on S. aureus NCIMB 9587 (S. aureus NCIMB 9587): ½
Compound: CO/N=C(\C(=O)N[C@@H]1C(=O)N2C(C(=O)O)=C(COC(N)=O)CS[C@H]12)c1ccco1 [Zinacef, Cefuroxime]

Compound: [N-]=[N+]=[N-] [sodium azide]
% Toxicity (L929 cells): 100%
